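How tested: cells in 96-well plates exposed to compound for 48 hours at five concentrations. GI50 is the concentration that inhibits growth by half. TGI: total growth inhibition.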
How the values were obtained:
Experiment in all cases: growth of human tumour cells (NCI), 48 h
EKVX NSCLC = tested on: EKVX NSCLC
HCC-2998 colon = tested on: HCC-2998 colon
MDA-MB-231 breast = tested on: MDA-MB-231 breast
MOLT-4 leukemia = tested on: MOLT-4 leukemia
NCI-H460 lung = tested on: NCI-H460 lung
OVCAR-8 ovarian = tested on: OVCAR-8 ovarian
PC-3 prostate = tested on: PC-3 prostate
SW-620 colon = tested on: SW-620 colon
TK-10 renal = tested on: TK-10 renal
U251 CNS = tested on: U251 CNS

## O=C1c2ccccc2-c2c1c1ccccc1c(=O)n2CCCCl
EKVX NSCLC
  GI50: 18.1 µM
  TGI: > 100 µM
HCC-2998 colon
  GI50: 10.4 µM
  TGI: 96.6 µM
MDA-MB-231 breast
  GI50: 11.4 µM
  TGI: 39.8 µM
MOLT-4 leukemia
  GI50: 1.61 µM
  TGI: 4.38 µM
NCI-H460 lung
  GI50: 3.57 µM
  TGI: > 100 µM
OVCAR-8 ovarian
  GI50: 9.28 µM
  TGI: 44.8 µM
PC-3 prostate
  GI50: 24.9 µM
  TGI: > 100 µM
SW-620 colon
  GI50: 8.75 µM
  TGI: > 100 µM
TK-10 renal
  GI50: 3.26 µM
  TGI: 14.3 µM
U251 CNS
  GI50: 11 µM
  TGI: 31.5 µM

— PubChem BioAssay (NCI)
